We go through 1 molecule from patent US9278914B2, “SARMs and method of use thereof” (UNIVERSITY OF TENNESSEE RESEARCH FOUNDATION, priority 2004, dated 2016).

For the assay, the system named is castrated (ORX) male Sprague-Dawley rats. Nature of the assay: Anabolic and androgenic activity in castrated (ORX) male rats, daily oral gavage for fourteen days. It counts as in vivo, rat. The settings on record: ORX rats. On the procedure:
Male Sprague-Dawley rats weighing approximately 200 g were purchased from Harlan Bioproducts for Science (Indianapolis, Ind.).
The test article for this study was weighed and dissolved in 10% DMSO (Fisher) diluted with PEG 300 (Acros Organics, N.J.) for preparation of the appropriate dosage concentrations. […] Animals were randomly assigned to one of seven groups consisting of 4 to 5 animals per group. Control groups (intact and ORX) were administered vehicle daily. […] Where appropriate, animals were castrated on day one of the study.
In addition, ventral prostate, seminal vesicles, and levator ani muscle were removed, individually weighed, normalized to body weight, and expressed as a percentage of intact control. Student's T-test was used to compare individual dose groups to the intact control group. Significance was defined a priori as a P-value<0.05. Ventral prostate and seminal vesicle weights were evaluated as a measure of androgenic activity, whereas levator ani muscle weight was evaluated as a measure of anabolic activity. Blood was collected from the abdominal aorta, centrifuged, and sera were frozen at −80° C. prior to determination of serum hormone levels. Serum luteinizing hormone (LH) and follicle stimulating hormone (FSH) concentrations were determined.
(§1) The test article for this study was weighed and dissolved in 10% DMSO (Fisher) diluted with PEG 300 (Acros Organics, N.J.) for preparation of the appropriate dosage concentrations. […] Animals were randomly assigned to one of seven groups consisting of 4 to 5 animals per group. Control groups (intact and ORX) were administered vehicle daily. Compound of formula S-XXIII was administered via oral gavage at doses of 0.01, 0.03, 0.1, 0.3, 0.75, and 1 mg/day to both intact and ORX groups. Where appropriate, animals were castrated on day one of the study. Treatment with compound of formula S-XXIII began nine days post ORX and was administered daily via oral gavage for fourteen days.
Male Sprague-Dawley rats weighing approximately 200 g were purchased from Harlan Bioproducts for Science (Indianapolis, Ind.). […] Regenerative effects of the compound of formula S-XXIV in chronically (9 days) ORX rats was similarly evaluated.
as §1, with “S-XXIV” for “S-XXIII”
Male Sprague-Dawley rats weighing approximately 200 g were purchased from Harlan Bioproducts for Science (Indianapolis, Ind.). […] Anabolic and androgenic activity of compound of formula S-XXV in intact animals was evaluated, and the dose response in acutely orchidectomized (ORX) animals was evaluated as well.
The compound was weighed and dissolved in 10% DMSO (Fisher) diluted with PEG 300 (Acros Organics, N.J.) for preparation of the appropriate dosage concentrations.

As to `C[C@](O)(COc1ccc(Cl)c(F)c1)C(=O)Nc1ccc(C#N)c(C(F)(F)F)c1` [S-II, (S)-3-(4-chloro-3-fluorophenoxy)-N-(4-cyano-3-(trifluoromethyl)phenyl)-2-hydroxy-2-methylpropanamide], the “Levator ani muscle weight” value runs as follows: (0.01 mg/day oral) 50%±5%; (0.03 mg/day oral) 62%±6%; (0.1 mg/day oral) 89%±10%; (0.3 mg/day oral) 118%±6%; (0.75 mg/day oral) 134%±8%. Moreover, the Prostate weight is 12%±3% (0.01 mg/day oral); 26%±7% (0.03 mg/day oral); 39%±6% (0.1 mg/day oral); 60%±14% (0.3 mg/day oral); 88%±16% (0.75 mg/day oral). The Seminal vesicle weight (0.01 mg/day oral) was 11%±1%; the Seminal vesicle weight (0.03 mg/day oral) is 11%±1%; the Seminal vesicle weight (0.1 mg/day oral) was 27%±14%; the Seminal vesicle weight (0.3 mg/day oral) is 58%±18%; the Seminal vesicle weight (0.75 mg/day oral) was 86%±12%; the Seminal vesicle weight (1 mg/day oral) is given as 100%±8%.
